The results in this text go back to paper PMC9964319, “Half-Sandwich Rhodium Complexes with Releasable N-Donor Monodentate Ligands: Solution Chemical Properties and the Possibility for Acidosis Activation” (Pharmaceutics, 2023).

One series in a line: Formation constants of mixed-ligand half-sandwich complexes (UV-vis and 1H NMR). The class given is physicochemical. Conditions: aqua complex + monodentate ligand; I = 0.10 M (KCl); t = 25.0 °C; UV-vis and 1H NMR. How it is done: NMR spectroscopic studies were carried out on a Bruker Avance III HD Ascend 500 Plus instrument. For the aqueous samples, ^1H NMR spectra were recorded with the WATERGATE water suppression pulse scheme using DSS internal standard. The highest peak of DSS was 0.00 ppm. The measurement was very similar to the UV-vis measurement since the complex–to–monodentate ligand ratio was also between 0–10 equivalents; the spectra were recorded after the given waiting time. […] This technique was useful in those cases where no spectral change was visible during the UV-vis titrations.
In both measurement methods, the formation constant (K) was obtained using the computer program PSEQUAD [38].
It is worthwhile to mention that the liberation of the bidentate ligand was not detected even at higher monodentate ligand excess (~10), which means that the disruption of the bond between the bidentate ligand and the metal center is not feasible under these conditions. The calculated formation constants are compared in Figure 5 and are collected in Table S2. The formation of the mixed-ligand complexes was not detected in three cases under the applied conditions, namely [Ru(p-cym)(en)(mim)]^2+, [Ru(p-cym)(phen)(mim)]^2+, and [Ru(p-cym)(en)(Py)]^2+. For these complexes, only a higher limit of the formation constant could be given, assuming that a maximum of 5% of the complex would form (limit of detection) under the conditions used for ^1H NMR spectroscopy. Based on Figure 5, the following trends are observed in the formation constants: (i) [RhCp*(en)(H2O)]^2+ and [RhCp*(phen)(H2O)]^2+ have a stronger monodentate ligand-binding ability than the Ru(p-cym) analogs; (ii) the formation constants of the [Ru(p-cym)(8HQH-1)(N)]^+ complexes are similar or somewhat higher than those of the RhCp* analogs; (iii) a stability trend for the monodentate ligand: mim > bim > Py (iv) and the bidentate ligand: 8HQH-1 > phen ≥ en can be seen.
Take `Cc1ccc(C(C)C)cc1.NCCN.[Ru+2].c1ccc2[nH]cnc2c1` [[RuCym(en)(H2O)]2+ + bim]: the “Formation constant logK of mixed-ligand complex” value (“Formation constant logK” for short) amounted to 3.5 ± 0.1.
As for `Cc1ccc(C(C)C)cc1.[Ru+][O]c1cccc2cccnc12.c1ccncc1` [[RuCym(8HQH-1)(H2O)]+ + Py], the “Formation constant logK” value is recorded as 1.6 ± 0.2.
Take `Cc1ccc(C(C)C)cc1.NCCN.[Ru+2].c1ccncc1` [[Ru(p-cym)(en)(Py)]^2+]: the “Formation constant logK” value is on record as less than 1.5.
The same measure, in the same setting: the result for `Cc1c(C)c(C)[c-](C)c1C.[Rh+3].c1ccc2[nH]cnc2c1.c1cnc2c(c1)ccc1cccnc12` [[RhCp*(phen)(bim)]^2+] reads 4.9 ± 0.2; that for `Cc1ccc(C(C)C)cc1.[Ru+][O]c1cccc2cccnc12.c1ccc2[nH]cnc2c1` [[RuCym(8HQH-1)(H2O)]+ + bim], 2.9 ± 0.1.
On to `Cc1c(C)c(C)[c-](C)c1C.[Rh+2][O]c1cccc2cccnc12.c1ccc2[nH]cnc2c1` [[RhCp*(8HQH-1)(H2O)]+ + bim], for which the “Formation constant logK” value is recorded as 3.4 ± 0.1.

Still in this series, the particulars now being: under the applied conditions, 1H NMR, limit of detection 5%.
Regarding `Cc1ccc(C(C)C)cc1.Cn1ccnc1.[Ru+2].c1cnc2c(c1)ccc1cccnc12` [[Ru(p-cym)(phen)(mim)]^2+], the “formation of the mixed-ligand complex” value was “not detected”.
Consider `Cc1ccc(C(C)C)cc1.NCCN.[Ru+2].c1ccncc1` [[Ru(p-cym)(en)(Py)]^2+], for which the “formation of the mixed-ligand complex” value was “not detected”.
The same measure, in the same setting: the result for `Cc1ccc(C(C)C)cc1.Cn1ccnc1.NCCN.[Ru+2]` [[Ru(p-cym)(en)(mim)]^2+] reads “not detected”.
